Source: ChEMBL document CHEMBL4184156, “Repurposing Hsp90 inhibitors as antibiotics targeting histidine kinases” (Bioorg Med Chem Lett, 2017)
Converted amounts (≈) assume the structure as drawn. Blank lines part the entries; values can stand above or below the compound they belong to.

Legend:
[1] = Inhibition of Thermotoga maritima HK853 preincubated for 30 mins followed by B-ATPgammaS addition after 1 hr in dark by in-gel fluorescence analysis
[2] = biological target: T1, Sensor protein kinase WalK family protein (Streptococcus pneumoniae PCS8203, UniProt A0A0H2UQD0); assay: Inhibition of Streptococcus pneumoniae VicK preincubated for 30 mins followed by [gamma-33P]ATP addition after 30 mins by SDS-PAGE method
T1 sequence (A0A0H2UQD0 whole entry): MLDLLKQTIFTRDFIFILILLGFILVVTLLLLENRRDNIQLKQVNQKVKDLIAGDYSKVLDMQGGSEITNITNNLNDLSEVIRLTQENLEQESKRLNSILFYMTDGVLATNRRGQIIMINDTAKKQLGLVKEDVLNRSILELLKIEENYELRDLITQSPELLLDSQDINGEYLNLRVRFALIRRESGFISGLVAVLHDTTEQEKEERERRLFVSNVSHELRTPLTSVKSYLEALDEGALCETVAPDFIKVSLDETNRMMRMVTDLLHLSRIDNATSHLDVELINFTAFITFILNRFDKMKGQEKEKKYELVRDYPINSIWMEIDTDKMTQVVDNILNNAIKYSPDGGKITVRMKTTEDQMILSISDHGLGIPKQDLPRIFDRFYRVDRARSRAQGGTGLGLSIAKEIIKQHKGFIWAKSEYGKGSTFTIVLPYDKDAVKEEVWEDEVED

Chemotaxis protein CheA = biological target: T2, Chemotaxis protein CheA (Escherichia coli (strain K12), UniProt P07363); assay: Inhibition of Escherichia coli CheA preincubated for 30 mins followed by [gamma-33P]ATP addition after 30 mins by SDS-PAGE method
T2 sequence (P07363 whole entry): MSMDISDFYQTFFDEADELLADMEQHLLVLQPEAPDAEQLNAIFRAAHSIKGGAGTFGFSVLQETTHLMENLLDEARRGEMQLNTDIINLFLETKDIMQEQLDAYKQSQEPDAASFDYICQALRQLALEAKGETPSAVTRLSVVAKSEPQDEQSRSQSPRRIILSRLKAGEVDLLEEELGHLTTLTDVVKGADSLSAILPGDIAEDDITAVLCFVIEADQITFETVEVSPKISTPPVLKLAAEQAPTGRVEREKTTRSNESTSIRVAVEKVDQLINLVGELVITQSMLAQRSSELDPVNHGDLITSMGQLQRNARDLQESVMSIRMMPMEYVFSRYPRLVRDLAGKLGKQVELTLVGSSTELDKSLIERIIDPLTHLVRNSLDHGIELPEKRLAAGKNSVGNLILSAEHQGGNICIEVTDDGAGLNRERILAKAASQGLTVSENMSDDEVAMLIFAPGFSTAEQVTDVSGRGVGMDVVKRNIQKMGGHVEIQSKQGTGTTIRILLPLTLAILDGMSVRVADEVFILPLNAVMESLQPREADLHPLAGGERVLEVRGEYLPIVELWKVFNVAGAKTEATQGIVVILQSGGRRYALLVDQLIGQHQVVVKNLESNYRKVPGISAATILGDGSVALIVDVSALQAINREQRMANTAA

Bacillus subtilis = assay: Antimicrobial activity against Bacillus subtilis 3610 after 20 hrs by Mueller-Hinton Broth microdilution method; assay type: functional; conditions: subsp. subtilis str. NCIB 3610, 20 h
Escherichia coli [3] = assay: Antimicrobial activity against Escherichia coli DC2 after 20 hrs by Mueller-Hinton Broth microdilution method; assay type: functional; conditions: DC2, 20 h
[4] = biological target: T3, Sensor protein kinase WalK (Staphylococcus epidermidis (strain ATCC 35984 / RP62A), UniProt Q5HK19); assay: Inhibition of recombinant Staphylococcus epidermidis ATCC 35984 N-terminal GB1-tagged YycG expressed in Escherichia coli BL21 (DE3) preincubated for 30 mins followed by ATP addition after 30 mins by kinase-glo assay
T3 sequence (Q5HK19 whole entry): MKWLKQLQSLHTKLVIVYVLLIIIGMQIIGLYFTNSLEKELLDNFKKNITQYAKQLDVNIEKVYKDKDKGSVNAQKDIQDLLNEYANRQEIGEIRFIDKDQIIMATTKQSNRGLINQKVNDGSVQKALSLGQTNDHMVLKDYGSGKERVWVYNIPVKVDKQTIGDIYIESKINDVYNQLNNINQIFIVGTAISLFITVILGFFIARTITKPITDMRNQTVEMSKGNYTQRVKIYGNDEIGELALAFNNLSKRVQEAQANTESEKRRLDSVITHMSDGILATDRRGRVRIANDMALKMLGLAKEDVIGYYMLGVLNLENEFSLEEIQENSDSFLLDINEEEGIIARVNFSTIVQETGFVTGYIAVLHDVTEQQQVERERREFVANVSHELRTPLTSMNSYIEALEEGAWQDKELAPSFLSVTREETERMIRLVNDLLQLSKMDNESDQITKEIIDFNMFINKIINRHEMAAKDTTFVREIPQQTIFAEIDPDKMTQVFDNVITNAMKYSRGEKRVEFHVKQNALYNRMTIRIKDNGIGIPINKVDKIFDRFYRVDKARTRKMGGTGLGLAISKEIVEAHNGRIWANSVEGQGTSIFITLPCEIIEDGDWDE

[5] = tested on: Staphylococcus epidermidis; assay: Antimicrobial activity against Staphylococcus epidermidis ATCC 35984 after 10 hrs; assay type: functional; conditions: ATCC 35984, 10 h
Staphylococcus aureus = assay: Antimicrobial activity against Staphylococcus aureus 20231 after 24 hrs by double dilution method; assay type: functional; conditions: Staphylococcus aureus, 20231, 24 h
[6] = biological target: T4, Phosphate regulon sensor protein phoR (Staphylococcus aureus subsp. aureus CN1, UniProt T1Y9P4); assay: Inhibition of Staphylococcus aureus DHp-catalytic domain PhoR autophosphorylation expressed in Escherichia coli RIL in presence of gamma-32P-ATP by SDS-PAGE analysis
T4 sequence (T1Y9P4 whole entry): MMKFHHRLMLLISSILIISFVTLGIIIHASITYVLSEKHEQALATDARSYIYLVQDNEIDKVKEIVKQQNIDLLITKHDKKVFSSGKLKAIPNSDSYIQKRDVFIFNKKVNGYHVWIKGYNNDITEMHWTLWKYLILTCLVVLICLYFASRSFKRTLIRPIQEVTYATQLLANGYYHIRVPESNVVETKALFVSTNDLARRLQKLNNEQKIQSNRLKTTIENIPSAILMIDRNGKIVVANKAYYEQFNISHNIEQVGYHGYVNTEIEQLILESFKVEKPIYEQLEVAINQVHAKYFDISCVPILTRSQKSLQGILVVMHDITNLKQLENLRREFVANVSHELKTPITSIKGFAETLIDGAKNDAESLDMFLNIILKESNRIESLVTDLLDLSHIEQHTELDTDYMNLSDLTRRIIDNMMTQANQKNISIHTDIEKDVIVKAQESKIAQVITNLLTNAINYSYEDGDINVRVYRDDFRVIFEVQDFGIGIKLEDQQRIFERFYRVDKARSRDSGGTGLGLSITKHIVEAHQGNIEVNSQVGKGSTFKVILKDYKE

[7] = biological target: T5, Phosphate regulon sensor protein PhoR (Escherichia coli (strain K12), UniProt P08400); assay: Inhibition of Escherichia coli DHp-catalytic domain PhoR autophosphorylation expressed in Escherichia coli RIL in presence of gamma-32P-ATP by SDS-PAGE analysis
T5 sequence (P08400 whole entry): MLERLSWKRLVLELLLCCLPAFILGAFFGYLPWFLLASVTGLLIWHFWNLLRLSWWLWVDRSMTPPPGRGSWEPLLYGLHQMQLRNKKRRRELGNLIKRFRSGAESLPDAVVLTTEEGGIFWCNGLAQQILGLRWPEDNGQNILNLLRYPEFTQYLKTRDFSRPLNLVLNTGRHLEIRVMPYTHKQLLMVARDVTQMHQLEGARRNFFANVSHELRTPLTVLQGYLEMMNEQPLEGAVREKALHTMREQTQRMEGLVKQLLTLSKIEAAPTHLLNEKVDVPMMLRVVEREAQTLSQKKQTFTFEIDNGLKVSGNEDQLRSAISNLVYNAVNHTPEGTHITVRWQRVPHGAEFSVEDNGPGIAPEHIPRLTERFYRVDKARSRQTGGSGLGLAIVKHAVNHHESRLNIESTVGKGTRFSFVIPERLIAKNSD

Escherichia coli [8] = assay: Antimicrobial activity against Escherichia coli CFT073 after 24 hrs by double dilution method; assay type: functional; conditions: CFT073, 24 h

SMILES: O=c1cc(-c2ccc(O)c(O)c2)oc2cc(O)cc(O)c12 [LUTEOLIN]
- IC50 [1]: 15.1 µM
- IC50 [2]: 216 µM
- IC50 (Chemotaxis protein CheA): 111 µM
- MIC (Bacillus subtilis): > 128 µg/mL
- MIC (Escherichia coli [3]): 8 µg/mL (≈ 27.9 µM)

- IC50 [4]: 24 µM
- MIC [5]: 1.6 µg/mL (≈ 3.06 µM)
SMILES: O=C(O)c1cccc(-c2ccc(/C=c3\sc4n(c3=O)C(c3ccc(F)cc3)C=C(c3ccccc3)N=4)o2)c1 (stereo unspecified)

- MIC (Staphylococcus aureus): 8 µg/mL (≈ 29.4 µM)
- IC50 [6]: 212 µM
- IC50 [7]: 16 µM
- MIC (Escherichia coli [8]): > 500 µg/mL
SMILES: CCC(c1ccc(O)cc1)C(CC)c1ccc(F)cc1 (stereo unspecified)
